This passage reports IC50 results from the Kinase Knowledgebase extract (Sharma et al. 2016).

The structures appear in SMILES notation.

This assay deals with PIK3CG (human) (UniProt P48736). The assay is described as follows: Assessment of PIK3CG Kinase Activity.
Chain of PIK3CG (human) (P48736 whole entry, looked up): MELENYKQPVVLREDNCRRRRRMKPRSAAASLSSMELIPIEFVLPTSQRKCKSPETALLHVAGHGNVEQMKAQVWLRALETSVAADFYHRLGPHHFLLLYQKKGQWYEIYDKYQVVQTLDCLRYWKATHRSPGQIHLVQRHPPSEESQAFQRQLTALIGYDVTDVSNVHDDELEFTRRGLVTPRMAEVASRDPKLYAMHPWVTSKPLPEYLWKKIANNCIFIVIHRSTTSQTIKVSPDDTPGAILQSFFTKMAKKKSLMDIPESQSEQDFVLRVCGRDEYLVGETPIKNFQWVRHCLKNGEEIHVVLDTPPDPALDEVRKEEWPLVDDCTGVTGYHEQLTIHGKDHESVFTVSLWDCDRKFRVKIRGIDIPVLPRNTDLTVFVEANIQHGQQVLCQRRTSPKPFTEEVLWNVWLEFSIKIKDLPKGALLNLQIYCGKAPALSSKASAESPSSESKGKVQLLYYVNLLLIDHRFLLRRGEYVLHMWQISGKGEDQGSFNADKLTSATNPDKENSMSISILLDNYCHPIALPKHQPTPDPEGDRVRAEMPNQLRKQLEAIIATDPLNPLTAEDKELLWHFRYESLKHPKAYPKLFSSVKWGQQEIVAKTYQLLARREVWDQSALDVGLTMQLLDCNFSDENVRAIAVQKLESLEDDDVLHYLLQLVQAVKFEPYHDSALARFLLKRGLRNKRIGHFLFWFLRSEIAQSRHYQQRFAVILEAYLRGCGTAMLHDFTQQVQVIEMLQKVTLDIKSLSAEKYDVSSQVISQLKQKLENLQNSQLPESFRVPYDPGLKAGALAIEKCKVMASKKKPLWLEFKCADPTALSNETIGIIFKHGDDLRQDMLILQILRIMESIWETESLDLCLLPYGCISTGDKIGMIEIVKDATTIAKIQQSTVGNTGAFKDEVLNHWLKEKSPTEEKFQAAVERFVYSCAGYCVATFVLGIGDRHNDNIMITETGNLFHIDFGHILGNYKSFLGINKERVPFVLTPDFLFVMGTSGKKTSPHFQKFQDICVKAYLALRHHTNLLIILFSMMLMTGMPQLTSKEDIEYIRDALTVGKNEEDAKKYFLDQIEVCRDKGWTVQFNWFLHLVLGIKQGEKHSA

Regarding `CC(C)c1cnc(CCNC(=O)Nc2nc3c(s2)-c2c(c(C4CC4)nn2-c2ccccc2Cl)CC3)o1`, the half-inhibitory concentration (IC50) (commonly the concentration needed to halve the response being measured) was under 800 nM.
Take `CC(=O)Nc1cccc(CNC(=O)Nc2nc3c(s2)-c2c(c(-c4cccnc4)nn2C2CCN(C4CCCC4)CC2)CC3)c1`: the IC50 was under 800 nM.
For the compound `CCc1nnc(CCNC(=O)Nc2nc3c(s2)-c2c(c(C4CC4)nn2-c2ccccc2Cl)CC3)o1`, the concentration for half-maximal inhibition (IC50) is under 800 nM.
`CCc1noc(CCNC(=O)Nc2nc3c(s2)-c2c(c(-c4ccccc4)nn2-c2cccc(Cl)c2)CC3)n1` gave an IC50 of under 800 nM.
`O=C(NCCc1ccncc1)Nc1nc2c(s1)-c1c(c(-c3cccnc3)nn1-c1ccccc1Cl)CC2` registered an IC50 of under 800 nM.
Compound `O=C(NCCn1ccnc1)Nc1nc2c(s1)-c1c(c(-c3cncnc3)nn1-c1ccccc1Cl)CC2` registered an IC50 of under 800 nM.
Consider `O=C(NCCc1cccnc1)Nc1nc2c(s1)-c1c(c(-c3cccnc3)nn1-c1ccccc1Cl)CC2`, for which the IC50 was under 800 nM.
For the compound `O=C(NCCn1cc[nH]c1=O)Nc1nc2c(s1)-c1c(c(-c3ccccc3)nn1-c1ccccc1Cl)CC2`, the IC50 was under 800 nM.
Compound `CNC(=O)Nc1nc2c(s1)-c1c(c(-c3ccccc3)nn1-c1cccc(Cl)c1)CC2` returned an IC50 of under 800 nM.
Regarding `CN1CCC(CNC(=O)Nc2nc3c(s2)-c2c(c(-c4cccnc4)nn2-c2ccccc2Cl)CC3)CC1`, the IC50 was under 800 nM.
Take `O=C(Nc1nc2c(s1)-c1c(c(-c3cncnc3)nn1-c1ccccc1Cl)CC2)N1CCC(NC(=O)C(F)(F)F)C1` (stereo not drawn): the IC50 is under 800 nM.
`CN1CCN(CCNC(=O)Nc2nc3c(s2)-c2c(c(-c4cncnc4)nn2-c2ccccc2F)CC3)CC1` showed a half-inhibitory concentration (IC50) of under 800 nM.
As for `CCc1nnc(CCNC(=O)Nc2nc3c(s2)-c2c(c(-c4cccnc4)nn2-c2ccccc2Cl)CC3)o1`, the IC50 was under 800 nM.
For `O=C(NCc1ccc2cc[nH]c2c1)Nc1nc2c(s1)-c1c(c(-c3cncnc3)nn1-c1ccccc1Cl)CC2`, the IC50 was under 800 nM.
On to `CCOC(=O)N1CCC[C@@H]1CNC(=O)Nc1nc2c(s1)-c1c(c(-c3cncnc3)nn1-c1ccccc1Cl)CC2`, for which the IC50 was under 800 nM.
`O=C(NC[C@H]1CCN(C(=O)N2CCCCC2)C1)Nc1nc2c(s1)-c1c(c(-c3cncnc3)nn1-c1ccccc1Cl)CC2` came in with an IC50 of under 800 nM.
The value for `CC(C)(C)OC(=O)N1CCC[C@@H]1CNC(=O)Nc1nc2c(s1)-c1c(c(-c3cncnc3)nn1-c1ccccc1F)CC2` was under 800 nM; that for `CN(C)C(=O)Nc1nc2c(s1)-c1c(c(-c3cncnc3)nn1-c1ccccc1Cl)CC2` was under 800 nM.
Compound `CN1CCN(c2ccc(NC(=O)Nc3nc4c(s3)-c3c(c(-c5cncnc5)nn3-c3ccccc3F)CC4)cc2)CC1` yielded an IC50 of under 800 nM.
`O=C(NCc1cccc(N2CCNC2=O)c1)Nc1nc2c(s1)-c1c(c(C3CC3)nn1-c1ccccc1Cl)CC2` displayed an IC50 of under 800 nM.
As to `CC(C)(C)OC(=O)CCNC(=O)Nc1nc2c(s1)-c1c(c(-c3ccccc3)nn1-c1cccc(Cl)c1)CC2`, the IC50 is under 800 nM.
In turn, `O=C(NCCC(=O)N1CCCCC1)Nc1nc2c(s1)-c1c(c(-c3cncnc3)nn1-c1ccccc1Cl)CC2` gave an IC50 of under 800 nM.
Then `O=C(Nc1nc2c(s1)-c1c(c(-c3ccccc3)nn1-c1ccccc1Cl)CC2)NC1CCS(=O)(=O)C1` (stereo not drawn), with under 800 nM; and `Cn1cc(CCNC(=O)Nc2nc3c(s2)-c2c(c(-c4cncnc4)nn2-c2ccccc2Cl)CC3)cn1`, with under 800 nM; and `O=C(NCCNS(=O)(=O)C(F)(F)F)Nc1nc2c(s1)-c1c(c(-c3ccccc3)nn1-c1ccccc1Cl)CC2`, with under 800 nM.
As for `CC(C)NC(=O)Nc1nc2c(s1)-c1c(c(-c3cccnc3)nn1-c1ccccc1Cl)CC2`, the IC50 was under 800 nM.
The value for `O=C(Nc1nc2c(s1)-c1c(c(-c3cccnc3)nn1-c1ccccc1Cl)CC2)NC1(c2nc3ccc(Cl)cc3[nH]2)CCCCC1` was under 800 nM; that for `COc1ccc(CCNC(=O)Nc2nc3c(s2)-c2c(c(-c4cncnc4)nn2-c2ccccc2Cl)CC3)cc1OC` was under 800 nM; that for `O=C(NCCc1ccccn1)Nc1nc2c(s1)-c1c(c(-c3cccnc3)nn1-c1ccccc1Cl)CC2` was under 800 nM.
The compound `CN1CCN(C(=O)CCNC(=O)Nc2nc3c(s2)-c2c(c(-c4ccccc4)nn2-c2ccccc2Cl)CC3)CC1` returned an IC50 of under 800 nM.
With `NC(=O)c1cccc(CNC(=O)Nc2nc3c(s2)-c2c(c(-c4cncnc4)nn2-c2ccccc2Cl)CC3)c1`, the IC50 is under 800 nM.
As to `O=C(NCCCN1CCOCC1)Nc1nc2c(s1)-c1c(c(-c3cncnc3)nn1-c1ccccc1F)CC2`, the half-maximal inhibitory concentration (IC50) is under 800 nM.
Take `CCc1cnc(CCNC(=O)Nc2nc3c(s2)-c2c(c(-c4cncnc4)nn2-c2ccccc2Cl)CC3)o1`: the half-inhibitory concentration (IC50) was under 800 nM.
Turning to `CC(C)c1noc(CCNC(=O)Nc2nc3c(s2)-c2c(c(-c4cccnc4)nn2C2CCN(C)CC2)CC3)n1`, the half-inhibitory concentration (IC50) was under 800 nM.
The value for `CN(C)C(=O)CCCNC(=O)Nc1nc2c(s1)-c1c(c(-c3ccccc3)nn1-c1ccccc1Cl)CC2` was under 800 nM; that for `Cn1cc(CCNC(=O)Nc2nc3c(s2)-c2c(c(-c4ccccc4)nn2-c2ccccc2Cl)CC3)cn1` was under 800 nM.
For `Nc1nnc(CNC(=O)Nc2nc3c(s2)-c2c(c(-c4cncnc4)nn2-c2ccccc2Cl)CC3)[nH]1`, the IC50 is under 800 nM.
In the case of `CN(C)C(=O)CCNC(=O)Nc1nc2c(s1)-c1c(c(-c3ccccc3)nn1-c1ccccc1Cl)CC2`, the IC50 is under 800 nM.
Turning to `Cc1nc[nH]c1-c1cccc(CNC(=O)Nc2nc3c(s2)-c2c(c(-c4cccnc4)nn2-c2ccccc2Cl)CC3)c1`, the IC50 was under 800 nM.
The compound `CC(C)(C)OC(=O)Nc1cccc(CNC(=O)Nc2nc3c(s2)-c2c(c(-c4cccnc4)nn2-c2ccccc2Cl)CC3)c1` had an IC50 of under 800 nM.
With `O=C(NCCN1CCNC1=O)Nc1nc2c(s1)-c1c(c(-c3ccccc3)nn1-c1ccccc1Cl)CC2`, the IC50 was under 800 nM.
In the case of `O=C(NC[C@H]1CCCN1C(=O)Oc1ccccc1)Nc1nc2c(s1)-c1c(c(-c3cncnc3)nn1-c1ccccc1Cl)CC2`, the IC50 was under 800 nM.
In turn, `CN(C)c1cccc(CNC(=O)Nc2nc3c(s2)-c2c(c(C4CC4)nn2-c2ccccc2Cl)CC3)c1` had an IC50 of under 800 nM.
Turning to `CCn1cnc(CCNC(=O)Nc2nc3c(s2)-c2c(c(C4CC4)nn2-c2ccccc2Cl)CC3)c1`, the IC50 was under 800 nM.
Take `CC(C)(C)OC(=O)N1CCCCC1CNC(=O)Nc1nc2c(s1)-c1c(c(-c3cncnc3)nn1-c1ccccc1Cl)CC2` (stereo not drawn): the IC50 was under 800 nM.
Compound `CC(C)c1noc(CCNC(=O)Nc2nc3c(s2)-c2c(c(-c4cccnc4)nn2-c2ccccc2Cl)CC3)n1` yielded an IC50 of under 800 nM.
Turning to `O=C(NCCN1CCOCC1)Nc1nc2c(s1)-c1c(c(-c3cncnc3)nn1-c1ccccc1F)CC2`, the IC50 is under 800 nM.
As to `CC(=O)N(C)c1cccc(CNC(=O)Nc2nc3c(s2)-c2c(c(-c4cncnc4)nn2-c2ccccc2Cl)CC3)c1`, the IC50 is under 800 nM.
Then `O=C(NCc1cccc(N2CCNC2=O)c1)Nc1nc2c(s1)-c1c(c(Nc3ccccn3)nn1-c1ccccc1)CC2`, with under 800 nM; and `NC(=O)c1cccc(CNC(=O)Nc2nc3c(s2)-c2c(c(C4CC4)nn2-c2ccccc2Cl)CC3)c1`, with under 800 nM; and `CC(=O)N(C)c1cccc(CNC(=O)Nc2nc3c(s2)-c2c(c(-c4cccnc4)nn2C2CCN(C)CC2)CC3)c1`, with under 800 nM.
`CCc1cccc(CNC(=O)Nc2nc3c(s2)-c2c(c(-c4cccnc4)nn2-c2ccccc2Cl)CC3)c1` had an IC50 of under 800 nM.
In turn, `CC(=O)Nc1cccc(CNC(=O)Nc2nc3c(s2)-c2c(c(-c4cccnc4)nn2-c2ccccc2Cl)CC3)c1` came in with an IC50 of under 800 nM.
